Experimental data as given in ChEMBL document CHEMBL1201862, “PubChem BioAssay data set” (2004).
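Following 48 hours of exposure in 96-well plates, responses at five concentrations were used to interpolate endpoints linearly. At the GI50, growth is halved.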 The source made the active and inactive calls. Rule as the data show it: active = GI50 up to about 1.1 µM and inactive = higher.

Tests used:
Experiment in all cases: growth of human tumour cells (NCI), 48 h
786-0 = test system: 786-0
A549 = test system: A549
BT-549 = test system: BT-549
CAKI-1 = test system: CAKI-1
COLO 205 = test system: COLO 205
LOX IMVI = test system: LOX IMVI
MDA-MB-231 = test system: MDA-MB-231
SF-268 = test system: SF-268
SF-539 = test system: SF-539
SK-MEL-28 = test system: SK-MEL-28
SK-OV-3 = test system: SK-OV-3
SN12C = test system: SN12C
UACC-257 = test system: UACC-257
UO-31 = test system: UO-31
DU-145 = test system: DU-145
K562 = test system: K562
MOLT-4 = test system: MOLT-4
SR = test system: SR

SMILES | GI50 (786-0) | GI50 (A549) | GI50 (BT-549) | GI50 (CAKI-1) | GI50 (COLO 205) | GI50 (LOX IMVI) | GI50 (MDA-MB-231) | GI50 (SF-268) | GI50 (SF-539) | GI50 (SK-MEL-28) | GI50 (SK-OV-3) | GI50 (SN12C) | GI50 (UACC-257) | GI50 (UO-31) | GI50 (DU-145) | GI50 (K562) | GI50 (MOLT-4) | GI50 (SR)
Cc1cc2nc3c(C#N)c(-c4ccccc4)cc(Nc4ccc(Cl)cc4)n3c2cc1C | > 100 µM (inactive) | > 100 µM (inactive) | > 100 µM (inactive) | > 100 µM (inactive) | > 100 µM (inactive) | > 100 µM (inactive) | > 100 µM (inactive) | 51.6 µM (inactive) | > 100 µM (inactive) | > 100 µM (inactive) | > 100 µM (inactive) | > 100 µM (inactive) | > 100 µM (inactive) | > 100 µM (inactive) | – | – | – | –
COc1ccccc1/N=C1\SCCN1C(=S)Nc1ccc(S(=O)(=O)/N=C/N(C)C)cc1 | 44.2 µM (inactive) | > 100 µM (inactive) | 21.9 µM (inactive) | 33.7 µM (inactive) | 28.6 µM (inactive) | 29.9 µM (inactive) | > 100 µM (inactive) | 22.1 µM (inactive) | 21.9 µM (inactive) | 30.1 µM (inactive) | > 100 µM (inactive) | 50.9 µM (inactive) | 36.1 µM (inactive) | 38.5 µM (inactive) | 29.6 µM (inactive) | 39.6 µM (inactive) | 22.6 µM (inactive) | –
CC(C)Oc1c(-c2ccc(F)cc2)c(O)c2c3c1oc(=O)n3C=CC2C (configuration not stated) | 14.7 µM (inactive) | 13 µM (inactive) | 14 µM (inactive) | 14.2 µM (inactive) | 16 µM (inactive) | 14.5 µM (inactive) | 14.4 µM (inactive) | 17.3 µM (inactive) | 13.4 µM (inactive) | 15.7 µM (inactive) | 24 µM (inactive) | 11.5 µM (inactive) | 13.2 µM (inactive) | 12.2 µM (inactive) | 13.1 µM (inactive) | 6.59 µM (inactive) | 6.07 µM (inactive) | –
COc1c2c(cc3c1C(=O)Cc1ccc4c(c1CN(C)CC3)OCO4)OCO2 | > 100 µM (inactive) | > 100 µM (inactive) | – | 79.3 µM (inactive) | 43.1 µM (inactive) | > 100 µM (inactive) | – | > 100 µM (inactive) | > 100 µM (inactive) | > 100 µM (inactive) | > 100 µM (inactive) | > 100 µM (inactive) | > 100 µM (inactive) | 12.2 µM (inactive) | – | 28.8 µM (inactive) | 36.7 µM (inactive) | 43.2 µM (inactive)
Cc1ccc(C(=O)N/N=C(\N=N\c2ccccc2C(=O)O)c2ccc(N(C)C)cc2)cc1 | > 100 µM (inactive) | 98.2 µM (inactive) | > 100 µM (inactive) | > 100 µM (inactive) | 35.2 µM (inactive) | > 100 µM (inactive) | > 100 µM (inactive) | > 100 µM (inactive) | > 100 µM (inactive) | > 100 µM (inactive) | – | > 100 µM (inactive) | > 100 µM (inactive) | 80.4 µM (inactive) | > 10 µM (inactive) | 35.8 µM (inactive) | 71.4 µM (inactive) | –
CCC(c1ccc(OC)cc1)C1NC(=S)NC1=O (configuration not stated) | > 50 µM (inactive) | > 50 µM (inactive) | – | > 50 µM (inactive) | > 50 µM (inactive) | > 50 µM (inactive) | > 50 µM (inactive) | > 50 µM (inactive) | > 50 µM (inactive) | > 50 µM (inactive) | > 50 µM (inactive) | > 50 µM (inactive) | > 50 µM (inactive) | > 50 µM (inactive) | > 50 µM (inactive) | 17.5 µM (inactive) | 35.5 µM (inactive) | –
Clc1ccc(-c2c3nc(c(-c4ccc(Cl)cc4)c4ccc([nH]4)c(-c4ccc(Cl)cc4)c4nc(c(-c5ccc(Cl)cc5)c5ccc2[nH]5)C=C4)C=C3)cc1 | > 100 µM (inactive) | > 100 µM (inactive) | > 100 µM (inactive) | > 100 µM (inactive) | > 100 µM (inactive) | > 100 µM (inactive) | > 100 µM (inactive) | > 100 µM (inactive) | > 100 µM (inactive) | > 100 µM (inactive) | > 100 µM (inactive) | > 100 µM (inactive) | > 100 µM (inactive) | > 100 µM (inactive) | – | > 100 µM (inactive) | > 100 µM (inactive) | > 100 µM (inactive)
Cc1ccc(C2NC(=O)c3ccccc3N2)c(C)c1 (configuration not stated) | 3.97 µM (inactive) | 5.65 µM (inactive) | – | 2.56 µM (inactive) | 2.11 µM (inactive) | 4.76 µM (inactive) | 7.4 µM (inactive) | 10.2 µM (inactive) | 1.61 µM (inactive) | 6.58 µM (inactive) | 2.22 µM (inactive) | 6.9 µM (inactive) | 6 µM (inactive) | 6.81 µM (inactive) | 5.71 µM (inactive) | 0.378 µM (active) | 0.736 µM (active) | 0.807 µM (active)
Cc1oc2c(c1C)S(=O)(=O)C(C#N)=C(N(C)C)N2 | > 100 µM (inactive) | > 100 µM (inactive) | > 100 µM (inactive) | > 100 µM (inactive) | – | > 100 µM (inactive) | > 100 µM (inactive) | > 100 µM (inactive) | > 100 µM (inactive) | > 100 µM (inactive) | > 100 µM (inactive) | > 100 µM (inactive) | > 100 µM (inactive) | > 100 µM (inactive) | > 100 µM (inactive) | > 100 µM (inactive) | > 100 µM (inactive) | –
COc1ccc(C(OC(C)=O)C2C(=C(C#N)C#N)c3ccccc3C2=C(C#N)C#N)cc1 (configuration not stated) | 60.4 µM (inactive) | – | – | 39.6 µM (inactive) | – | 33.9 µM (inactive) | 39.5 µM (inactive) | 35.6 µM (inactive) | 20.6 µM (inactive) | 67.3 µM (inactive) | 18.6 µM (inactive) | – | > 100 µM (inactive) | 28 µM (inactive) | 64.9 µM (inactive) | 30.1 µM (inactive) | 25.9 µM (inactive) | 16.1 µM (inactive)
NC1=C(N2CCOCC2)C(=O)NC2=N/C(=C\c3ccccc3)C(=O)N21 | > 100 µM (inactive) | > 100 µM (inactive) | – | > 100 µM (inactive) | > 100 µM (inactive) | > 100 µM (inactive) | > 100 µM (inactive) | > 100 µM (inactive) | 76.7 µM (inactive) | > 100 µM (inactive) | > 100 µM (inactive) | > 100 µM (inactive) | > 100 µM (inactive) | > 100 µM (inactive) | > 100 µM (inactive) | 26.1 µM (inactive) | 35.8 µM (inactive) | 49.2 µM (inactive)
C[C@@H](NC(=O)OC1C=CC2(CC1)C(=O)N(C)c1ccccc12)c1cccc2ccccc12 (some centres not stated) | > 25 µM (inactive) | 12.8 µM (inactive) | – | > 25 µM (inactive) | 15.1 µM (inactive) | 19.7 µM (inactive) | > 25 µM (inactive) | 7.36 µM (inactive) | – | > 25 µM (inactive) | > 25 µM (inactive) | > 25 µM (inactive) | 12.2 µM (inactive) | > 25 µM (inactive) | > 25 µM (inactive) | 15.1 µM (inactive) | 5.93 µM (inactive) | 10.2 µM (inactive)
